Measured values published in US20230144824A1, “1H-PYRAZOLO[4,3-d]PYRIMIDINE COMPOUNDS AS TOLL-LIKE RECEPTOR 7 (TLR7) AGONISTS” (BRISTOL-MYERS SQUIBB COMPANY, priority 2020, published 2023).

Columns and labels:
[1] = molecular target: T1, human TLR7 (Homo sapiens, UniProt Q9NYK1); assay: Human TLR7 agonist activity assay (HEK-Blue TLR7 SEAP reporter); assay type: cell-based; details: HEK-Blue TLR7 cells, 18 h treatment, average where assay performed multiple times, read-out: hTLR7 Agonism EC50
T1 construct: host or cells: HEK-Blue TLR7 cells (engineered human embryonic kidney cells)
T1 sequence (Q9NYK1 27-1049): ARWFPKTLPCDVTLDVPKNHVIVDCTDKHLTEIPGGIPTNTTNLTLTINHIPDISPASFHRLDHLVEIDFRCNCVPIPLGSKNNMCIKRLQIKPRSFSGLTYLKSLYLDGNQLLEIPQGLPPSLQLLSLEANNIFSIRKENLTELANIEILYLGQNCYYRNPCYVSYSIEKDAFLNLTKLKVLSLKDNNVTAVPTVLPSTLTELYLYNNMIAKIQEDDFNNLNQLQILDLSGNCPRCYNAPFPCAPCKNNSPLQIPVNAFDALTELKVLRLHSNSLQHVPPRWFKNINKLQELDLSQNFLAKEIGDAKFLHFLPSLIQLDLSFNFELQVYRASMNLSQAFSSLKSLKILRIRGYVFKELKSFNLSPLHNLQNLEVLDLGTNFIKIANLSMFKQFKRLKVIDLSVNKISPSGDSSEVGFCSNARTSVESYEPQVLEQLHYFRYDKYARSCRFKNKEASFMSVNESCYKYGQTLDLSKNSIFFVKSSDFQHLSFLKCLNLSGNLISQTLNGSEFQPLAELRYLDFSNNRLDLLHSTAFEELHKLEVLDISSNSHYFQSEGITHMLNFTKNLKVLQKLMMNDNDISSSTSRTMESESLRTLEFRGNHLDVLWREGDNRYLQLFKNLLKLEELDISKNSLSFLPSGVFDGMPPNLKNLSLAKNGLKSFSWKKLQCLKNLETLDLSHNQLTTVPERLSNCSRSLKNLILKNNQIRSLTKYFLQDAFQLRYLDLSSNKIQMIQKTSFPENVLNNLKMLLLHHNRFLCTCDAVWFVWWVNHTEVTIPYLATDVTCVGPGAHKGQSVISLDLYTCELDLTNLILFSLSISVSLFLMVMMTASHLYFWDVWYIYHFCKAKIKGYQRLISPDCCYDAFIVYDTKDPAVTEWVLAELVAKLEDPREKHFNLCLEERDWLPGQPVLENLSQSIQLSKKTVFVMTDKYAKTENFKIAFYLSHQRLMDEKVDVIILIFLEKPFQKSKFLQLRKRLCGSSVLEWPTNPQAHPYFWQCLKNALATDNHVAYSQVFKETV
In short: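 HEK-Blue TLR7 cells (15,000/well) treated with compound for 18 h at 37 °C, 5% CO2. Secreted SEAP measured with Quanti-Blue, 30 min, OD 620 nm. EC50 taken as concentration giving half-maximal response between baseline and maximum.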

[2] = test system: CD69; assay: Induction of CD69 in human whole blood; assay type: cell-based; details: Homo sapiens, 17 h, 100% set to 1 uM of resiquimod, average where assay performed multiple times, read-out: hWB CD69 EC50
Protocol: The induction of Type I interferon (IFN) MX-1 genes and the B-cell activation marker CD69 are downstream events that occur upon activation of the TLR7 pathway. The following is a human whole blood assay that measures their induction in response to a TLR7 agonist.
Heparinized human whole blood was harvested from human subjects and treated with test TLR7 agonist compounds at 1 mM. The blood was diluted with RPMI 1640 media and Echo was used to predot 10 nL per well giving a final concentration of 1 uM (10 nL in 10 uL of blood). After mixing on a shaker for 30 sec, the plates were covered and placed in a 37° C. chamber for o/n=17 hrs. Fixing/lysis buffer was prepared (5×->1× in H2O, warm at 37° C.; Cat #BD 558049) and kept the perm buffer (on ice) for later use.
For surface markers staining (CD69): prepared surface Abs: 0.045 ul hCD14-FITC (ThermoFisher Cat #MHCD1401)+0.6 ul hCD19-ef450 (ThermoFisher Cat #48-0198-42)+1.5 ul hCD69-PE (cat #BD555531)+0.855 ul FACS buffer. Added 3 ul/well, spin1000 rpm for 1 min and mixed on shaker for 30 sec, put on ice for 30 mins. Stop stimulation after 30 minutes with 70 uL of prewarmed 1× fix/lysis buffer and use Feliex mate to resuspend (15 times, change tips for each plate) and incubate at 37 C for 10 minutes.
Centrifuge at 2000 rpm for 5 minutes aspirate with HCS plate washer, mix on shaker for 30 sec and then wash with 70 uL in dPBS and pelleted 2×s (2000 rpm for 5 min) and 50 ul wash in FACS buffer pelleted 1×s (2000 rpm for 5 min). Mix on shaker for 30 sec. For Intracellular markers staining (MX-1): Add 50 ul of BD Perm buffer III and mix on shaker for 30 sec. Incubate on ice for 30 minutes (in the dark). Wash with 50 uL of FACS buffer 2×(spin @2300 rpm×5 min after perm) followed by mixing on shaker for 30 sec. Resuspended in 20 ul of FACS buffer containing MX1 antibody ( )(4812)-Alexa 647: Novus Biologicals #NBP2-43704AF647) 20 ul FACS bf+0.8 ul hIgG+0.04 ul MX-1. Spin 1000 rpm for 1 min, mix on shaker for 30 se and the samples were incubated at RT in the dark for 45 minutes followed by washing 2×FACS buffer (spin @2300 rpm×5 min after perm). Resuspend 20 ul (35 uL total per well) of FACS buffer and cover with foil and place in 4° C. to read the following day. Plates were read on iQuePlus. The results were loaded into toolset and IC50 curves are generated in curve master. The y-axis 100% is set to 1 uM of resiquimod.

`CCCCNc1nc(N)nc2cnn(Cc3ncc(C4CCN(C5CCS(=O)(=O)CC5)CC4)cc3OC)c12` [Compound 116, 4-[4-(6-{[5-amino-7-(butylamino)-1H-pyrazolo[4,3-d]pyrimidin-1-yl]methyl}-5-methoxypyridin-3-yl)piperidin-1-yl]-1λ^6-thiane-1,1-dione] gave an EC50 [1] of 84.6 nM and an EC50 [2] of 10.5 nM.
Work on `CCCCNc1nc(N)nc2cnn(Cc3ncc(C4CCN(C(=O)CN5CC6(CN(C)C6)C5)CC4)cc3OC)c12` [Compound 117, 1-[4-(6-{[5-amino-7-(butylamino)-1H-pyrazolo[4,3-d]pyrimidin-1-yl]methyl}-5-methoxypyridin-3-yl)piperidin-1-yl]-2-{6-methyl-2,6-diazaspiro[3.3]heptan-2-yl}ethan-1-one] yielded an EC50 [1] of 856 nM and an EC50 [2] of 313 nM.
`CCCCNc1nc(N)nc2cnn(Cc3ncc(C4CCN(C(=O)CN5C[C@@H]6C[C@H]5CN6)CC4)cc3OC)c12` [Compound 118, 1-[4-(6-{[5-amino-7-(butylamino)-1H-pyrazolo[4,3-d]pyrimidin-1-yl]methyl}-5-methoxypyridin-3-yl)piperidin-1-yl]-2-[(1S,4S)-2,5-diazabicyclo[2.2.1]heptan-2-yl]ethan-1-one] was tested, and the EC50 [1] was 716 nM and the EC50 [2] was 890 nM.
Work on `CCCCNc1nc(N)nc2cnn(Cc3ncc(C4CCN(CC(N)=O)CC4)cc3OC)c12` [Compound 119, 2-[4-(6-{[5-amino-7-(butylamino)-1H-pyrazolo[4,3-d]pyrimidin-1-yl]methyl}-5-methoxypyridin-3-yl)piperidin-1-yl]acetamide] yielded an EC50 [1] of 165 nM and an EC50 [2] of 5.1 nM.
`CCCCNc1nc(N)nc2cnn(Cc3ncc(C4CCN(CC(=O)N(C)C)CC4)cc3OC)c12` [Compound 120, 2-[4-(6-{[5-amino-7-(butylamino)-1H-pyrazolo[4,3-d]pyrimidin-1-yl]methyl}-5-methoxypyridin-3-yl)piperidin-1-yl]-N,N-dimethylacetamide] was tested, and the EC50 [1] was 79.1 nM and the EC50 [2] was 2 nM.
Molecule `CCCCNc1nc(N)nc2c(C)nn(Cc3ncc(C4CCN(C5CCOCC5)CC4)cc3OC)c12` [Compound 121, N7-butyl-1-({3-methoxy-5-[1-(oxan-4-yl)piperidin-4-yl]pyridin-2-yl}methyl)-3-methyl-1H-pyrazolo[4,3-d]pyrimidine-5,7-diamine] has an EC50 [1] of 602 nM and an EC50 [2] of 122 nM.
`CCCCNc1nc(N)nc2c(C)nn(Cc3ncc(C4CCN(C(C)C)CC4)cc3OC)c12` [Compound 122, N7-butyl-1-({3-methoxy-5-[1-(propan-2-yl)piperidin-4-yl]pyridin-2-yl}methyl)-3-methyl-1H-pyrazolo[4,3-d]pyrimidine-5,7-diamine] was tested, and the EC50 [1] was 193 nM and the EC50 [2] was 18.7 nM.
`CCCCNc1nc(N)nc2c(C)nn(Cc3ncc(C4CCN(C)CC4)cc3OC)c12` [Compound 123, N7-butyl-1-{[3-methoxy-5-(1-methylpiperidin-4-yl)pyridin-2-yl]methyl}-3-methyl-1H-pyrazolo[4,3-d]pyrimidine-5,7-diamine] showed an EC50 [1] of 491 nM and an EC50 [2] of 40.2 nM.
For `CCC[C@@H](CCO)Nc1nc(N)nc2cnn(Cc3ncc(C4CCNCC4)cc3OC)c12` [Compound 124, (3S)-3-[(5-amino-1-{[3-methoxy-5-(piperidin-4-yl)pyridin-2-yl]methyl}-1H-pyrazolo[4,3-d]pyrimidin-7-yl)amino]hexan-1-ol], the EC50 [1] was 189 nM and the EC50 [2] was 56.9 nM.
`CCC[C@@H](CCO)Nc1nc(N)nc2cnn(Cc3ncc(C4CCN(CCO)CC4)cc3OC)c12` [Compound 125, (3S)-3-{[5-amino-1-({5-[1-(2-hydroxyethyl)piperidin-4-yl]-3-methoxypyridin-2-yl}methyl)-1H-pyrazolo[4,3-d]pyrimidin-7-yl]amino}hexan-1-ol] showed an EC50 [1] of 57.8 nM and an EC50 [2] of 10.2 nM.
Molecule `CCC[C@@H](CCO)Nc1nc(N)nc2cnn(Cc3ncc(C4CCN(C(C)C)CC4)cc3OC)c12` [Compound 126, (3S)-3-{[5-amino-1-({3-methoxy-5-[1-(propan-2-yl)piperidin-4-yl]pyridin-2-yl}methyl)-1H-pyrazolo[4,3-d]pyrimidin-7-yl]amino}hexan-1-ol] has an EC50 [1] of 15.5 nM and an EC50 [2] of 2 nM.
Molecule `CCC[C@@H](CCO)Nc1nc(N)nc2cnn(Cc3ncc(C4CCN(C5CCOCC5)CC4)cc3OC)c12` [Compound 127, (3S)-3-{[5-amino-1-({3-methoxy-5-[1-(oxan-4-yl)piperidin-4-yl]pyridin-2-yl}methyl)-1H-pyrazolo[4,3-d]pyrimidin-7-yl]amino}hexan-1-ol] has an EC50 [1] of 12.8 nM and an EC50 [2] of 2.7 nM.
`CCCCNc1nc(N)nc2cnn(Cc3ncc(C4CCN(C(=O)CN(C)C)CC4)cc3OC)c12` [Compound 128, 1-[4-(6-{[5-amino-7-(butylamino)-1H-pyrazolo[4,3-d]pyrimidin-1-yl]methyl}-5-methoxypyridin-3-yl)piperidin-1-yl]-2-(dimethylamino)ethan-1-one] gave an EC50 [1] of 48.4 nM and an EC50 [2] of 3.5 nM.
With `CCCCNc1nc(N)nc2cnn(Cc3ncc(C4CCN(C5CCCC5)CC4)cc3OC)c12` [Compound 129, N7-butyl-1-{[5-(1-cyclopentylpiperidin-4-yl)-3-methoxypyridin-2-yl]methyl}-1H-pyrazolo[4,3-d]pyrimidine-5,7-diamine] the EC50 [1] was 27.3 nM and the EC50 [2] was 7.6 nM.
Molecule `CCCCNc1nc(N)nc2c(Cl)nn(Cc3ncc(C4CCN(C5CCCC5)CC4)cc3OC)c12` [Compound 131, N7-butyl-3-chloro-1-{[5-(1-cyclopentylpiperidin-4-yl)-3-methoxypyridin-2-yl]methyl}-1H-pyrazolo[4,3-d]pyrimidine-5,7-diamine] has an EC50 [1] of 595 nM and an EC50 [2] of 972 nM.
In the case of `CCCCNc1nc(N)nc2cnn(Cc3ncc(C4CCN(C=O)CC4)cc3OC)c12` [Compound 132, 4-(6-{[5-amino-7-(butylamino)-1H-pyrazolo[4,3-d]pyrimidin-1-yl]methyl}-5-methoxypyridin-3-yl)piperidine-1-carbaldehyde], the EC50 [1] is reported as 180 nM and the EC50 [2] is reported as 195 nM.
For `CCC[C@@H](CCO)Nc1nc(N)nc2cnn(Cc3ncc(C4CCN(C5COC5)CC4)cc3OC)c12` [Compound 133, (3S)-3-{[5-amino-1-({3-methoxy-5-[1-(oxetan-3-yl)piperidin-4-yl]pyridin-2-yl}methyl)-1H-pyrazolo[4,3-d]pyrimidin-7-yl]amino}hexan-1-ol], the EC50 [1] was 7.6 nM and the EC50 [2] was 5.4 nM.
`CCC[C@@H](CCO)Nc1nc(N)nc2cnn(Cc3ncc(C4CCN(C)CC4)cc3OC)c12` [Compound 134, (3S)-3-[(5-amino-1-{[3-methoxy-5-(1-methylpiperidin-4-yl)pyridin-2-yl]methyl}-1H-pyrazolo[4,3-d]pyrimidin-7-yl)amino]hexan-1-ol] showed an EC50 [1] of 14.1 nM and an EC50 [2] of 2.6 nM.
